Reference: PubChem BioAssay AID256 (DTP/NCI, 2004)
Where “and” joins values, the source holds several entries; their conditions need not be identical. Equal entries are not always repeated. Toxic doses and inconclusive results are not listed. Rule for the calls: active = survival T/C of 150% or more; inactive = T/C below 125% in these data.

Test system: CD2F1 mice, L1210 leukemia ip, survival T/C
Experiment: NCI In Vivo Anticancer Drug Screen. Data for tumor model L1210 Leukemia (intraperitoneal) in CD2F1 (CDF1) mice
Settings: higher = longer survival
Procedure, shortened: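 Read-out first: treated-group measurement over vehicle-control measurement, expressed as a ratio. Animals bore a transplanted tumor line and were dosed with compound or vehicle.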

[1] = endpoint: mean survival time, dose: 50.0 mg/kg/injection, schedule: Q01DX001 (ip), vehicle: saline
[2] = endpoint: mean survival time, dose: 50.0 mg/kg/injection, schedule: Q04DX003 (ip), vehicle: saline
[3] = endpoint: mean survival time, dose: 100.0 mg/kg/injection, schedule: Q01DX001 (ip), vehicle: saline
[4] = endpoint: mean survival time, dose: 100.0 mg/kg/injection, schedule: Q04DX003 (ip), vehicle: saline
[5] = endpoint: mean survival time, dose: 200.0 mg/kg/injection, schedule: Q01DX001 (ip), vehicle: saline
[6] = endpoint: mean survival time, dose: 200.0 mg/kg/injection, schedule: Q04DX003 (ip), vehicle: saline

Measured: T/C

C[C@]12C=CC(=O)C=C1CC[C@@H]1[C@@H]2C(=O)C[C@@]2(C)[C@H]1CC[C@]2(O)C(=O)CO
inactive: endpoint: mean survival time, dose: 6.25 mg/kg/injection, schedule: Q03HX008 (ip), vehicle: saline 98 % of control | endpoint: mean survival time, dose: 6.25 mg/kg/injection, schedule: Q03HX016 (ip), vehicle: saline 97 % of control | endpoint: mean survival time, dose: 6.25 mg/kg/injection, schedule: Q03HX024 (ip), vehicle: saline 100 % of control | endpoint: mean survival time, dose: 12.5 mg/kg/injection, schedule: Q03HX008 (ip), vehicle: saline 98 % of control | endpoint: mean survival time, dose: 12.5 mg/kg/injection, schedule: Q03HX016 (ip), vehicle: saline 98 % of control | endpoint: mean survival time, dose: 12.5 mg/kg/injection, schedule: Q03HX024 (ip), vehicle: saline 96 % of control | endpoint: mean survival time, dose: 25.0 mg/kg/injection, schedule: Q01DX009 (ip), vehicle: saline 102 % of control | endpoint: mean survival time, dose: 25.0 mg/kg/injection, schedule: Q03HX008 (ip), vehicle: saline 101 % of control | endpoint: mean survival time, dose: 25.0 mg/kg/injection, schedule: Q03HX016 (ip), vehicle: saline 104 % of control | endpoint: mean survival time, dose: 25.0 mg/kg/injection, schedule: Q03HX024 (ip), vehicle: saline 95 % of control | [1] 93 % of control | endpoint: mean survival time, dose: 50.0 mg/kg/injection, schedule: Q01DX001 (oral), vehicle: saline 105 % of control | endpoint: mean survival time, dose: 50.0 mg/kg/injection, schedule: Q01DX009 (ip), vehicle: saline 102 % of control | endpoint: mean survival time, dose: 50.0 mg/kg/injection, schedule: Q01DX009 (oral), vehicle: saline 100 % of control | endpoint: mean survival time, dose: 50.0 mg/kg/injection, schedule: Q03HX008 (ip), vehicle: saline 105 % of control | endpoint: mean survival time, dose: 50.0 mg/kg/injection, schedule: Q03HX016 (ip), vehicle: saline 101 % of control | endpoint: mean survival time, dose: 50.0 mg/kg/injection, schedule: Q03HX024 (ip), vehicle: saline 101 % of control | [2] 100 % of control | endpoint: mean survival time, dose: 50.0 mg/kg/injection, schedule: Q08DX002 (ip), vehicle: saline 90 % of control | [3] 102 % of control | endpoint: mean survival time, dose: 100.0 mg/kg/injection, schedule: Q01DX001 (oral), vehicle: saline 103 % of control | endpoint: mean survival time, dose: 100.0 mg/kg/injection, schedule: Q01DX009 (ip), vehicle: saline 103 % of control | endpoint: mean survival time, dose: 100.0 mg/kg/injection, schedule: Q01DX009 (oral), vehicle: saline 96 % of control | endpoint: mean survival time, dose: 100.0 mg/kg/injection, schedule: Q01DX009 (sc), vehicle: steriod suspending solution 107 % of control | endpoint: mean survival time, dose: 100.0 mg/kg/injection, schedule: Q03HX008 (ip), vehicle: saline 105 % of control | endpoint: mean survival time, dose: 100.0 mg/kg/injection, schedule: Q03HX016 (ip), vehicle: saline 98 % of control | endpoint: mean survival time, dose: 100.0 mg/kg/injection, schedule: Q03HX024 (ip), vehicle: saline 101 % of control | [4] 100 % of control | endpoint: mean survival time, dose: 100.0 mg/kg/injection, schedule: Q08DX002 (ip), vehicle: saline 91 % of control | [5] 104 % of control | endpoint: mean survival time, dose: 200.0 mg/kg/injection, schedule: Q01DX001 (oral), vehicle: saline 104 % of control | endpoint: mean survival time, dose: 200.0 mg/kg/injection, schedule: Q01DX009 (ip), vehicle: saline 90 % of control | endpoint: mean survival time, dose: 200.0 mg/kg/injection, schedule: Q01DX009 (oral), vehicle: saline 98 % of control | endpoint: mean survival time, dose: 200.0 mg/kg/injection, schedule: Q01DX009 (sc), vehicle: steriod suspending solution 107 % of control | [6] 107 % of control | endpoint: mean survival time, dose: 200.0 mg/kg/injection, schedule: Q08DX002 (ip), vehicle: saline 93 % of control | endpoint: mean survival time, dose: 400.0 mg/kg/injection, schedule: Q01DX001 (ip), vehicle: saline 107 % of control | endpoint: mean survival time, dose: 400.0 mg/kg/injection, schedule: Q01DX001 (oral), vehicle: saline 105 % of control | endpoint: mean survival time, dose: 400.0 mg/kg/injection, schedule: Q01DX009 (ip), vehicle: saline 103 % of control | endpoint: mean survival time, dose: 400.0 mg/kg/injection, schedule: Q01DX009 (oral), vehicle: saline 91 % of control | endpoint: mean survival time, dose: 400.0 mg/kg/injection, schedule: Q01DX009 (sc), vehicle: steriod suspending solution 104 % of control | endpoint: mean survival time, dose: 400.0 mg/kg/injection, schedule: Q04DX003 (ip), vehicle: saline 100 % of control | endpoint: mean survival time, dose: 400.0 mg/kg/injection, schedule: Q08DX002 (ip), vehicle: saline 89 % of control | endpoint: mean survival time, dose: 800.0 mg/kg/injection, schedule: Q01DX001 (ip), vehicle: saline 107 % of control | endpoint: mean survival time, dose: 800.0 mg/kg/injection, schedule: Q01DX001 (oral), vehicle: saline 104 % of control | endpoint: mean survival time, dose: 800.0 mg/kg/injection, schedule: Q01DX009 (oral), vehicle: saline 103 % of control | endpoint: mean survival time, dose: 800.0 mg/kg/injection, schedule: Q01DX009 (sc), vehicle: steriod suspending solution 98 % of control | endpoint: mean survival time, dose: 800.0 mg/kg/injection, schedule: Q04DX003 (ip), vehicle: saline 95 % of control | endpoint: mean survival time, dose: 800.0 mg/kg/injection, schedule: Q08DX002 (ip), vehicle: saline 94 % of control

COc1nc(C(Cl)(Cl)Cl)c(Cl)c(OC)c1Cl
inactive: endpoint: median survival time, dose: 12.5 mg/kg/injection, schedule: Q01DX009 (ip), vehicle: Klucel (hydroxypropylcellulose) (HPC) 108 % of control | endpoint: median survival time, dose: 25.0 mg/kg/injection, schedule: Q01DX009 (ip), vehicle: Klucel (hydroxypropylcellulose) (HPC) 98 % of control and 103 % of control | endpoint: median survival time, dose: 50.0 mg/kg/injection, schedule: Q01DX005 (ip), vehicle: Klucel (hydroxypropylcellulose) (HPC) 105 % of control and 112 % of control | endpoint: median survival time, dose: 50.0 mg/kg/injection, schedule: Q01DX009 (ip), vehicle: Klucel (hydroxypropylcellulose) (HPC) 106 % of control and 107 % of control | endpoint: median survival time, dose: 67.0 mg/kg/injection, schedule: Q01DX005 (ip), vehicle: Klucel (hydroxypropylcellulose) (HPC) 119 % of control and 102 % of control | endpoint: median survival time, dose: 90.0 mg/kg/injection, schedule: Q01DX005 (ip), vehicle: Klucel (hydroxypropylcellulose) (HPC) 105 % of control | endpoint: median survival time, dose: 120.0 mg/kg/injection, schedule: Q01DX005 (ip), vehicle: Klucel (hydroxypropylcellulose) (HPC) 113 % of control | endpoint: median survival time, dose: 200.0 mg/kg/injection, schedule: Q01DX009 (ip), vehicle: Klucel (hydroxypropylcellulose) (HPC) 115 % of control and 120 % of control

CNC(=O)n1c(N)nc(-c2ccccc2)c1-c1ccccc1
inactive: endpoint: median survival time, dose: 6.25 mg/kg/injection, schedule: Q01DX009 (ip), vehicle: saline with Tween-80 101 % of control | endpoint: median survival time, dose: 12.5 mg/kg/injection, schedule: Q01DX009 (ip), vehicle: saline with Tween-80 103 % of control | endpoint: median survival time, dose: 25.0 mg/kg/injection, schedule: Q01DX009 (ip), vehicle: saline with Tween-80 114 % of control | endpoint: median survival time, dose: 50.0 mg/kg/injection, schedule: Q01DX009 (ip), vehicle: saline with Tween-80 119 % of control | endpoint: median survival time, dose: 100.0 mg/kg/injection, schedule: Q01DX009 (ip), vehicle: saline with Tween-80 98 % of control

CC(=O)Nc1ccc2c(c1)C(N1CC3CCC(CC3)C1)c1ccccc1-2 (stereo not drawn)
inactive: [2] 105 % of control | [4] 103 % of control | [6] 103 % of control

O=C(O)C1CCCC[N-]1.[Cl][Pd][Cl] (stereo not drawn)
inactive: endpoint: mean survival time, dose: 12.5 mg/kg/injection, schedule: Q01DX001 (ip), vehicle: saline 95 % of control | endpoint: mean survival time, dose: 25.0 mg/kg/injection, schedule: Q01DX001 (ip), vehicle: saline 108 % of control | [1] 98 % of control | [3] 104 % of control | [5] 109 % of control

O=C(/C(Br)=C/c1ccccc1)c1ccccc1
inactive: endpoint: mean survival time, dose: 100.0 mg/kg/injection, schedule: Q04DX003 (ip), vehicle: other 103 % of control | endpoint: mean survival time, dose: 200.0 mg/kg/injection, schedule: Q04DX003 (ip), vehicle: other 105 % of control

CCc1ccc(OC2OC(CO)C(OC3OC(CO)C(O)C(O)C3O)C(O)C2O)cc1 (stereo not drawn)
inactive: endpoint: mean survival time, dose: 75.0 mg/kg/injection, schedule: Q01DX001 (ip), vehicle: steriod suspending solution 92 % of control | endpoint: mean survival time, dose: 150.0 mg/kg/injection, schedule: Q01DX001 (ip), vehicle: steriod suspending solution 92 % of control | endpoint: mean survival time, dose: 300.0 mg/kg/injection, schedule: Q01DX001 (ip), vehicle: steriod suspending solution 95 % of control

NNc1c(F)ccc(F)c1F
inactive: endpoint: mean survival time, dose: 25.0 mg/kg/injection, schedule: Q01DX001 (ip), vehicle: saline with Tween-80 100 % of control | endpoint: mean survival time, dose: 50.0 mg/kg/injection, schedule: Q01DX001 (ip), vehicle: saline with Tween-80 100 % of control | endpoint: mean survival time, dose: 100.0 mg/kg/injection, schedule: Q01DX001 (ip), vehicle: saline with Tween-80 94 % of control

CCCCNC(=O)C(C)S(=O)(=O)c1ccc(C)cc1 (stereo not drawn)
inactive: endpoint: mean survival time, dose: 100.0 mg/kg/injection, schedule: Q01DX009 (ip), vehicle: saline with Tween-80 103 % of control | endpoint: mean survival time, dose: 200.0 mg/kg/injection, schedule: Q01DX009 (ip), vehicle: saline with Tween-80 97 % of control | endpoint: mean survival time, dose: 400.0 mg/kg/injection, schedule: Q01DX009 (ip), vehicle: saline with Tween-80 95 % of control

C=[CH][Pb]([CH]=C)([O]C(=O)C(C)C)[O]C(=O)C(C)C
inactive: endpoint: mean survival time, dose: 5.0 mg/kg/injection, schedule: Q01DX009 (ip), vehicle: saline with Tween-80 93 % of control | endpoint: mean survival time, dose: 10.0 mg/kg/injection, schedule: Q01DX009 (ip), vehicle: saline with Tween-80 95 % of control
